In ChEMBL document CHEMBL1134124, “Isoindolines: a new series of potent and selective endothelin-A receptor antagonists” (Bioorg Med Chem Lett, 2001):

Assays:
[1] = biological target: T1, Endothelin receptor type B (Homo sapiens) (UniProt P24530); test: Inhibition of [125I]ET1 binding to CHO cells expressing human Endothelin B receptor at a concentration of 1 uM; assay type: cell-based
T1 sequence (whole entry): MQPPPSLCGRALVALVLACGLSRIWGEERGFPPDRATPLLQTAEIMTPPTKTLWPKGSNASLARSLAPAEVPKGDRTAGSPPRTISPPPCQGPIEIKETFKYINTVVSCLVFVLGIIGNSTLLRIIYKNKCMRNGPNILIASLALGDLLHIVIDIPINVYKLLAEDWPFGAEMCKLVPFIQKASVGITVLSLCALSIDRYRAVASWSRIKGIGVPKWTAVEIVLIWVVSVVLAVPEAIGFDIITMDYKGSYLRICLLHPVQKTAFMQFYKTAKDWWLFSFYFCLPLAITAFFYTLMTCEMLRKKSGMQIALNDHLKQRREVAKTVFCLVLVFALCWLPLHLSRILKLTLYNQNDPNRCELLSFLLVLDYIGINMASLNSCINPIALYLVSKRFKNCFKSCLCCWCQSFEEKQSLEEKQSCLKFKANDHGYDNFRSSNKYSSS

Endothelin-1 receptor [2] = biological target: T2, Endothelin-1 receptor (Homo sapiens, UniProt P25101); test: In vitro inhibition of [125I]ET1 binding to CHO cells expressing recombinant human Endothelin A receptor; assay type: cell-based
T2 sequence (P25101 whole entry): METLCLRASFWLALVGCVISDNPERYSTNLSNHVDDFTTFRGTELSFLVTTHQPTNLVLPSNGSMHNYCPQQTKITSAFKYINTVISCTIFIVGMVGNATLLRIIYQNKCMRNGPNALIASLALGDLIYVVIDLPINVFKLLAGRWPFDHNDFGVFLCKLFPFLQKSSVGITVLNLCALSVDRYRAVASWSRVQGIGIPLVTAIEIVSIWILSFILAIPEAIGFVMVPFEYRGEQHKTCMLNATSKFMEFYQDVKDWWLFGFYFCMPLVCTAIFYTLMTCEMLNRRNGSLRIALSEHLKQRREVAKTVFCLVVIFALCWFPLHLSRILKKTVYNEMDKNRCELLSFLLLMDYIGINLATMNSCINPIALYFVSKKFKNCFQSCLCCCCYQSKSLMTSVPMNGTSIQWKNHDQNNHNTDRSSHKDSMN

[3] = biological target: T3, Endothelin receptor type B (Homo sapiens, UniProt P24530); test: Inhibition of [125I]-ET-1 binding to CHO cells expressing human Endothelin B receptor […]; assay type: cell-based
T3 sequence (P24530 whole entry): T1 sequence (whole entry)

Endothelin-1 receptor [4] = biological target: T2, Endothelin-1 receptor; test: Tested for in vitro inhibition of [125I]ET1 binding to CHO cells expressing human Endothelin A receptor; assay type: cell-based
Rattus norvegicus = species on record: Rattus norvegicus; test: Tested for antagonising activity against ET-1 induced contraction of rat aorta; assay type: functional

SMILES	inhibition [1] [%]	IC50 (Endothelin-1 receptor [2]) [nM]	Ki [3] [nM]	Ki (Endothelin-1 receptor [4]) [nM]	pKB (Rattus norvegicus)
CCOc1ccc2c(c1)[C@H](c1cc(OC)c(OC)c(OC)c1)N(CC(=O)O)[C@@H]2c1ccc2c(c1)OCO2	15	–	–	–	–
CCOc1ccc2c(c1)[C@@H](c1ccc(OC)cc1)N(CC(=O)O)[C@@H]2c1ccc2c(c1)OCO2	9	96	–	–	–
CCOc1ccc2c(c1)[C@@H](c1ccc(OC)cc1OCc1nn[nH]n1)N(CC(=O)O)[C@@H]2c1ccc2c(c1)OCO2	0	–	–	–	–
CCOc1ccc2c(c1)[C@@H](c1ccc(OC)cc1OCc1nnn[nH]1)N(CC(=O)O)[C@@H]2c1ccc2c(c1)OCO2	–	29	–	–	–
CCOc1ccc2c(c1)[C@@H](c1ccc(OC)cc1OCCO)N(CC(=O)O)[C@@H]2c1ccc2c(c1)OCO2	6	> 10000	–	–	–
CCOc1ccc2c(c1)[C@@H](c1ccc(OC)cc1OCCCC(=O)O)N(CC(=O)O)[C@@H]2c1ccc2c(c1)OCO2	37	22	–	–	–
CCOc1ccc2c(c1)[C@H](c1ccc(OC)cc1OCc1nn[nH]n1)N(CC(=O)O)[C@@H]2c1ccc2c(c1)OCO2	37	–	–	–	–
CCOc1ccc2c(c1)[C@@H](c1ccc(OC)c(OC)c1OCC(=O)O)N(CC(=O)O)[C@@H]2c1ccc2c(c1)OCO2	2	6.1	–	–	–
CCOc1ccc2c(c1)[C@@H](c1ccc(OC)cc1OCC(C)(C)C(=O)O)N(CC(=O)O)[C@@H]2c1ccc2c(c1)OCO2	1	68	–	–	–
CCOc1ccc2c(c1)[C@H](c1cccc(OC)c1OCC(=O)O)N(CC(=O)O)[C@@H]2c1ccc2c(c1)OCO2	31	110	–	–	–
CCCOc1ccc2c(c1)[C@@H](c1ccc(OC)cc1)N(CC(=O)O)[C@@H]2c1ccc(OC)cc1OCC(=O)O	0	> 10000	–	–	–
CCOc1ccc2c(c1)[C@H](c1ccc(OC)cc1)N(CC(=O)O)[C@@H]2c1ccc2c(c1)OCO2	23	95	–	–	–
CCOc1ccc2c(c1)[C@H](c1ccc(OC)c(OC)c1OCC(=O)O)N(CC(=O)O)[C@@H]2c1ccc2c(c1)OCO2	27	96	–	–	–
CCOc1ccc2c(c1)[C@H](c1cc(OC)c(OC)c(OC)c1)N(c1nn[nH]n1)[C@@H]2c1ccc2c(c1)OCO2	0	> 10000	–	–	–
CCOc1ccc2c(c1)[C@H](c1ccc(OC)cc1OCc1nnn[nH]1)N(CC(=O)O)[C@@H]2c1ccc2c(c1)OCO2	–	> 1000	–	–	–
CCOc1ccc2c(c1)[C@H](c1ccc(OC)cc1OCC(=O)O)N(CC(=O)O)[C@@H]2c1ccc2c(c1)OCO2	52	4.1	–	–	–

SMILES	inhibition [1] [%]	IC50 (Endothelin-1 receptor [2]) [nM]	Ki [3] [nM]	Ki (Endothelin-1 receptor [4]) [nM]	pKB (Rattus norvegicus)
CCOc1ccc2c(c1)[C@@H](c1ccc(OC)cc1O)N(CC(=O)O)[C@@H]2c1ccc2c(c1)OCO2	4	77	–	–	–
CCOc1ccc2c(c1)[C@H](c1ccc(OC)cc1OCC(=O)O)N(C(=O)C(=O)O)[C@@H]2c1ccc2c(c1)OCO2	0	> 10000	–	–	–
CCOc1ccc2c(c1)[C@H](c1cc(OC)c(OC)c(OC)c1OCC(=O)O)N(CC(=O)O)[C@@H]2c1ccc2c(c1)OCO2	10	330	–	–	–
CCOc1ccc2c(c1)[C@@H](c1ccc(OC)cc1OCC(=O)O)N(c1nn[nH]n1)[C@@H]2c1ccc2c(c1)OCO2	17	31	–	–	–
CCOc1ccc2c(c1)[C@@H](c1ccc(OC)cc1OCC(=O)O)N(CC(=O)O)[C@@H]2c1ccc2c(c1)OCO2	15	5.4	–	–	–
CCOc1ccc2c(c1)[C@@H](c1cc(OC)c(OC)c(OC)c1)N(CC(=O)O)[C@@H]2c1ccc2c(c1)OCO2	17	66	–	–	–
CCOc1ccc2c(c1)[C@H](c1ccc(OC)cc1O)N(CC(=O)O)[C@@H]2c1ccc2c(c1)OCO2	13	58	–	–	–
CCCOc1ccc2c(c1)[C@@H](c1ccc(OC)cc1)N(CC(=O)O)[C@@H]2c1ccc2c(c1)OCO2	–	120	–	–	–
CCCOc1ccc2c(c1)[C@H](c1ccc(OC)cc1)N(CC(=O)O)[C@@H]2c1ccc(OC)cc1OCC(=O)O	0	> 10000	–	–	–
CCOc1ccc2c(c1)[C@@H](c1cccc(OC)c1OCC(=O)O)N(CC(=O)O)[C@@H]2c1ccc2c(c1)OCO2	12	85	–	–	–
CCCOc1ccc2c(c1)[C@H](c1ccc(OC)cc1OCC(=O)O)[C@@H](C(=O)O)[C@@H]2c1ccc2c(c1)OCO2	–	–	14.7	0.43	–
COc1ccc([C@@H]2c3cc(OC)ccc3[C@@H](c3ccc4c(c3)OCO4)N2CC(=O)O)cc1	1	3300	–	–	–
CCOc1ccc2c(c1)[C@@H](c1ccc(OC)cc1OCC(=O)O)N(C(=O)C(=O)O)[C@@H]2c1ccc2c(c1)OCO2	11	12	–	–	7.7
CCOc1ccc2c(c1)[C@@H](c1cc(OC)c(OC)c(OC)c1OCC(=O)O)N(CC(=O)O)[C@@H]2c1ccc2c(c1)OCO2	1	310	–	–	–
CCOc1ccc2c(c1)[C@H](c1ccc(OC)cc1OCC(C)(C)C(=O)O)N(CC(=O)O)[C@@H]2c1ccc2c(c1)OCO2	34	14	–	–	–
